# Earlier results as cited in PMC2222665, “The dimerization domain of HIV-1 viral infectivity factor Vif is required to block virion incorporation of APOBEC3G” (Retrovirology, 2007).
# Tested on: HIV-1
# Parameters: method as in PMID 1708976
# Conditions: ref [45],[46]
smiles,measurement,value
Cc1cn([C@H]2C[C@H](N=[N+]=[N-])[C@@H](CO)O2)c(=O)[nH]c1=O [AZT],IC95 of HIV-1 infectivity,5 µM
